{
  "source": "patent US20160206608A1",
  "about": "(Pfizer Inc., priority 2011, published 2016)",
  "key": {"[1]": {"tested_on": "HCC78 human NSCLC cells", "experiment": "Western blot of cleaved caspase-3 (apoptosis) in HCC78 cells", "conditions": "3-hour drug treatment"}, "[2]": {"tested_on": "SLC34A2-ROS dependent signaling (ROS, SHP2, STAT3, AKT, ERK1/2) in HCC78 cells", "experiment": "Immunoblot of ROS mediated signal transduction in HCC78 cells", "conditions": "3 hours of drug treatment"}, "[3]": {"tested_on": "3T3-ROS engineered tumor models (CD74-ROS, SLC34A2-ROS (L), SLC34A2-ROS (S), FIG-ROS (L), FIG-ROS (S))", "experiment": "Panel of ROS fusion engineered 3T3-ROS xenograft tumor models", "conditions": "PO BID, all five models, nude mice"}},
  "data": [
    {"smiles": "C[C@@H](Oc1cc(-c2cnn(C3CCNCC3)c2)cnc1N)c1c(Cl)ccc(F)c1Cl", "note": "[crizotinib, 3-[(R)-1-(2,6-dichloro-3-fluoro-phenyl)-ethoxy]-5-(1-piperidin-4-yl-1H-pyrazol-4-yl)-pyridin-2-ylamine]", "values": [
      {"measurement": "induction of activated caspase-3 levels", "setting": "[1]", "value": "significant dose-dependent induction"},
      {"measurement": "inhibition of ROS phosphorylation (activation loop) and downstream SHP2, STAT3, AKT and ERK1/2", "setting": "[2]", "value": "dose dependently inhibited"},
      {"measurement": "cytoreductive effect in 3T3-ROS engineered tumor models", "setting": "[3]", "value": "significant cytoreductive effects"}
    ]}
  ]
}
